{"source": "patent US20240196932A1", "about": "“NOVEL USE” (DSM IP Assets B.V., priority 2021, published 2024)", "system": "rumen liquor", "test": "In vitro test for methane production (modified Hohenheim Forage value Test, HFT)", "format": "cell-based", "conditions": "for Total methane change [% vs. control]: TMR feed, 8 hours at 39° C, average of four to eight experiments", "description": "In vitro test for methane production: A modified version of the “Hohenheim Forage value Test (HFT)” was used for testing the effect of specific compounds on the rumen functions mimicked by this in-vitro system.\nPrinciple: Feed is gadded into a syringe with a composition of rumen liquor and an appropriate mixture of buffers. The solution is incubated at 39° C. After 8 hours the quantity (and composition) of gas phase produced is measured and put into a formula for conversion.\nSample weighing: The feed stuff (i.e. TMR (44% concentrate, 6% hay, 37% maize silage and 13% grass silage) is sieved to 1 mm and weighed exactly into 64 syringes. 4 of these syringes are the substrate controls, which display the gas production without the effect of the tested compounds. The remaining syringes contain the test substances, by groups of 4 syringes.\nThe components are mixed in a Woulff bottle in following order: • 711 ml water • 0.18 ml trace element solution • 355.5 ml buffer solution • 355.5 ml mass element solution • The completed solution is warmed up to 39° C.followed by the addition of 1.83 ml sodium salt solution and the addition of reduction solution at 36° C. The rumen liquor is added, when the indicator turns colourless.\nExtraction of the rumen liquor: 750 ml of rumen liquor are added to approximately 1,400 ml of medium solution under continued agitation and CO2-gassing.\nFilling the syringes, incubation and determining gas volumes and VFA values: The diluted rumen fluid (24 ml) is added to the glass syringe. The syringes are then incubated for 8 hours at 39° C.under gentle agitation. After 8 hours, the volume of gas produced is measured, and the percentage of methane in the gas phase is determined by gas chromatography.\nThe food fermented was artificial TMR (44% concentrate, 6% hay, 37% maize silage and 13% grass silage). Gossypol was obtained from Sigma-Aldrich (G8761), and used at a concentration as outlined in table 1. 3-Nitrooxy-propanol (3-NOP) was used at the concentration as outlined in table 1."}
{"smiles": "Cc1cc2c(C(C)C)c(O)c(O)c(C=O)c2c(O)c1-c1c(C)cc2c(C(C)C)c(O)c(O)c(C=O)c2c1O", "note": "(racemic) [gossypol, Gossypol]", "values": [{"measurement": "Total methane change [% vs. control]", "setting": "gossypol 5 μM, listed as prints 2 g/animal/day", "result": "−1", "unit": "% vs. control"}, {"measurement": "Total methane change [% vs. control]", "setting": "gossypol 10 μM, listed as prints 4.3 g/animal/day", "result": "−11", "unit": "% vs. control"}, {"measurement": "Total methane change [% vs. control]", "setting": "gossypol 20 μM, listed as prints 8.6 g/animal/day", "result": "−15", "unit": "% vs. control"}, {"measurement": "Total methane change [% vs. control]", "setting": "gossypol 100 μM, listed as prints 17.3 g/animal/day", "result": "−69", "unit": "% vs. control"}, {"measurement": "methane reduction", "setting": "gossypol concentrations of at least 7.5 g gossypol/animal/day", "result": "Clear effects"}]}
